Results from EP1113726B1, “USE OF NEOHESPERIDIN DIHYDROCHALCONE FOR THE MANUFACTURE OF A MEDICAMENT FOR PREVENTING OR TREATING ELEVATED BLOOD LIPID LEVEL-RELATED DISEASES” (Korea Research Institute of Bioscience and Biotechnology, priority 1998, dated 2000).

What was measured:
Sprague-Dawley rats = experiment: Plasma total cholesterol, HDL-cholesterol and neutral lipid levels in rats fed a high-cholesterol diet; conditions: 1 % cholesterol diet plus 0.05 % neohesperidin dihydrochalcone, six weeks
ICR female mice = conditions: mouse, oral, single dose of 1,000 mg/kg
Procedure: 12 seven-week-old, specific pathogen-free ICR female mice, six female mice each weighing about 25 to 29 g and six male mice each weighing about 34 to 38 g, were kept under an environment of 22±1°C, 55±5 % relative humidity and 12L/12D photoperiod. Fodder(Cheiljedang Co., mouse and rat fodder) and water were sterilized and fed to the mice.
Neohesperidin dihydrochalcone purchased from Aldrich-Sigma Chemical Co. (St. Louis, MO, U.S.A) was dissolved in 0.5 % Tween 80 to a concentration of 100 mg/ml, and the solution was orally administered to the mice in an amount of 0.2 ml per 20 g of mouse body weight. […] Further, on the 10th day, the mice were sacrificed and the internal organs were visually examined.

[1] = test system: New Zealand White rabbits; experiment: Chemical analysis of blood of cholesterol-fed rabbits; type: in vivo
Procedure: (§1) 30 three-month-old New Zealand White rabbits(Yeonam Horticulture and Animal Husbandry College, Korea), each weighing about 2.5 to 2.6 kg, were raised under a condition of temperature 20±2°C, relative humidity 55±5 %, and photoperiod 12L/12D. The rabbits were divided into 3 groups and 3 groups of rabbits were fed with 3 different diets, i.e., RC4 diet(Oriental Yeast Co., Japan) containing 1 % cholesterol(Control group); 1 % cholesterol plus 1 mg/kg Lovastatin®(Merck, U.S.A.)(Lovastatin group); and 1 % cholesterol plus 0.05 % neohesperidin dihydrochalcone(Neohesperidin dihydrochalcone group), respectively. RC4 diet comprises 7.6 % moisture, 22.8 % crude protein, 2.8 % crude fat, 8.8 % crude ash, 14.4 % crude cellulose and 43.6 % soluble nitrogen-free substances. Neohesperidin dihydrochalcone was purchased from Sigma Chemical Co.(St. Louis, MO).
(§2) The rabbits were fed for 6 weeks while being allowed free access to the diets and water.
After six weeks, the rabbits were anesthetized with an intramuscular injection of ketamine (50 mg/kg) in the femoral region and sacrificed.

[2] = test system: New Zealand White rabbits; experiment: Microscopic grading of abnormal fat-containing cells in the liver of cholesterol-fed rabbits (fatty liver); type: in vivo; conditions: 1 % cholesterol diet for 6 weeks plus 1 mg/kg Lovastatin or 0.05 % neohesperidin dihydrochalcone
Procedure: as §1, §2
In order to evaluate the effects of feeding a high cholesterol diet with neohesperidin dihydrochalcone on liver tissues, the liver specimens taken from the sacrificed rabbit in Step 2 of Example 6 were treated in accordance with the procedure disclosed in Fogt F. and Nanji A., Toxicology and Applied Pharmacology, 136, 87-93, 1996; and Keegan A., et al., Journal of Hepatology 23: 591-600, 1995, and observed under a microscope to be classified into four grades, i.e., 1+(0-25%), 2+(26-50%), 3+(51-75), 4+(76-100%) based on the proportion of abnormal fat-containing cells around the central vein in the liver acinus.
Figs. 2A, 2B and 2C present the microscopic features of the livers of the rabbits administered with 1% cholesterol; 1% cholesterol plus 1 mg/kg Lovastatin®; 1% and cholesterol plus 0.05% neohesperidin dihydrochalcone, respectively.

Human = experiment: Effect of administration to a human on plasma lipid metabolism; type: in vivo; conditions: two men in their mid-fifties, daily oral dose of 10mg/kg, capsule, 60 days, before versus after
Procedure: Two men in their mid-fifties were administered with a daily oral dose of 10mg/kg of neohesperidin dihydrochalcone in the form of a capsule for 60 days. The plasma cholesterol and neutral lipid(triglyceride) contents were determined before and after the administration.

[3] = test system: New Zealand White rabbits; experiment: Analysis for fatty streak in the main artery of cholesterol-fed rabbits (Oil Red O staining); type: in vivo; conditions: 1 % cholesterol diet for 6 weeks plus 1 mg/kg Lovastatin or 0.05 % neohesperidin dihydrochalcone
Procedure: as §1, §2
The chest of each of the rabbits sacrificed in Step 2 was incised. The downward portion of the main artery from the site 1 cm above the aortic valve was cut out in a length of about 5 cm and the fat surrounding the main artery was removed. The main artery was incised in the middle along the longitudinal axis and pinned to a dish. The moist artery was photographed and, then, the staining of fatty streaks was carried out in accordance with the method of Esper, E., et al. (J. Lab. Clin. Med., 121, 103-110(1993)) as follows.
A part of the incised main artery was washed three times with anhydrous propylene glycol for 2 min and stained for 30 min. with a saturated solution of Oil Red O(ORO, Sigma Co.) dissolved in propylene glycol. Thereafter, the artery was washed twice with 85 % propylene glycol for 3 min. to remove remaining staining solution and, then washed with physiological saline. The artery was photographed and the photograph was traced. The area of stained region (fatty streak region) was determined with an image analyzer(LEICA, Q-600, Germany) and its proportion(%) to the total arterial area was calculated.

[4] = rabbit serum, 1 % cholesterol diet for 6 weeks plus 1 mg/kg Lovastatin or 0.05 % neohesperidin dihydrochalcone
[5] = rabbits, 1 % cholesterol plus 0.05 % neohesperidin dihydrochalcone, 6 weeks

COc1ccc(CCC(=O)c2c(O)cc(O[C@@H]3O[C@H](CO)[C@@H](O)[C@H](O)[C@H]3O[C@@H]3O[C@@H](C)[C@H](O)[C@@H](O)[C@H]3O)cc2O)cc1O [Neohesperidin dihydrochalcone]
(HDL-C)/(Total-C (%)) (Sprague-Dawley rats): 16% | neutral lipid content reduced, as compared with Control group (Sprague-Dawley rats): 9% | total plasma cholesterol level reduced, as compared with Control group (Sprague-Dawley rats): 15% | HDL-C (Sprague-Dawley rats; n=10): 19 ± 3 mg/dL | TG (Sprague-Dawley rats; n=10): 52 ± 8 mg/dL | Total-C (Sprague-Dawley rats; n=10): 115 ± 10 mg/dL | survival at day 10 (ICR female mice): All the mice were alive | pathological abnormality at autopsy (ICR female mice; autopsy on the 10th day): did not develop any pathological abnormality | GOT [1, 4]: 53 (±23) IU/1 | GPT [1, 4]: 42 (±20) IU/l | Total-C [1, 4]: 1293 (±89) mg/dl | γ-GTP [1, 4]: 7.8 (±5) IU/l | reducing serum GOT and GPT levels, compared with Lovastatin® ([1]; rabbits, 1 % cholesterol diet, 6 weeks): more effective | serum GOT level lowered, as compared to the Control group [1, 5]: 31% | serum GPT level lowered, as compared to the Control group [1, 5]: 35% | B: Proportion of abnormal fat-containing cells ([2]; rabbit liver, cells around the central vein, mean of grades 1+ to 4+): 2.7 (±0.3) | microscopic features of the liver (Figs. 2B, 2C) ([2]; rabbits): almost all liver cells are of a normal shape | plasma cholesterol content reduced (Human): 20% | plasma neutral lipid(triglyceride) content reduced (Human): 15% | A: Proportion(%) of fatty streak region to the total arterial area ([3]; rabbit main artery): 12 (±7) % | layer of macrophage-lipid complex on the arterial endothelium (Figs. 1B, 1C) ([3]; rabbits): no or very thin layers of macrophage-lipid complex
